Like-named read-outs stand apart in the source and are kept apart here.
Columns and labels:
[1] = system: human lung fibroblast cells; details: cited from earlier work
cdc2-cyclin B = assay: purified kinase phosphorylation assay, cdc2-cyclin B; assay type: biochemical, Starfish
Description: (§1) To examine the effects of a range of diverse substituents on the purine ring, we synthesized combinatorial libraries in which the 2, 6, and 9 positions could be varied starting with a 2-flouro-6-chloropurine framework. (FIG. 1A) (2,3). Substitution chemistry was used to install amines at the 2 and 6 positions, and a Mitsunobu reaction (4,5) was used to alkylate the N9 position of the purine core. The subsitution chemistry allows introduction of primary and secondary amines bearing a wide range of functional groups, whereas the Mitsunobu reaction tolerates primary and secondary alcohols lacking additional acidic hydrogens. Newly appended groups can be modified combinatorially in subsequent steps with a variety of chemistries including acylation, reductive amination, and Suzuki coupling reactions (6), During library synthesis, one position is held invariant to allow attachment to the solid support. Libraries are synthesized in a spatially separated format with either a pin apparatus (7) or polystyrene resin and screened for kinase inhibitors with a 96-well, solution-phase phosphorylation assay.
9. Starfish is the major source for cdc2-cyclin B kinase.

[2] = system: mRNA levels of nearly all yeast genes; assay: transcript profiling with high-density oligonucleotide expression arrays; assay type: cell-based, S. cerevisiae; details: for number of genes with greater than twofold change in transcript level: more than 6200 genes monitored; for YCRX13W SOL2 transcript INCREASE: FLA UNIQUE
Experimental: In addition to measuring the inhibitory effects of purine derivatives in kinase assays and assays of cell growth, their effects on the mRNA levels of nearly all yeast genes were determined with high-density oligonucleotide expression arrays (17, 18). These arrays (19, 20) make it possible to measure quantitatively and in parallel mRNA levels for a very large number of genes after any chemical, environmental, or genetic perturbation.
Yeast cultures were grown to late logarithmic phase (15), treated with 25 μM concentrations of the inhibitors for 2 hours, after which cellular polyadenylated mRNA was isolated and converted to biotin-labeled complementary RNA (cRNA) (17, 18). The labeled cRNA was then hybridized to a set of four arrays containing more than 260,000 25-nucleotide oligomers (20).
15. […] Three cultures [110 ml, in yeast extract, peptone, and dextrose (YPD)] were inoculated with single colonies of YRP1 (MAT, erg6::LEU2, pdr5::TRP1, snq2::HIS6) and grown at 30° C. with constant agitation in a water bath incubator. When the cell density reached an optical density (OD) of 0.9 (at a wavelength of 600 nm), 27.5 μl of a 100 mM dimethyl sulfoxide (DMSO) stock solution of 52 or flavopiridol or DMSO alone was added. After 2 hours the cells were harvested by centrifugation and flash frozen with liquid nitrogen. For the temperature-sensitive cdc28 mutants, three cultures (75 ml, YPD) of AFS 199 (cdc28-13), AA104 (cdc28-4), and their isogenic background strain AFS34 (MATa, ade2-1, his3-11, leu2-3, trp1-1, ura3) were grown from single colonies to an OD of 0.9 (600 nm) and harvested as described. Frozen cells were stored at […]

Cak1p = target: T1, Cak1p (Saccharomyces cerevisiae, UniProt P43568); assay: kinase assay in immunoprecipitates, Cak1p; assay type: biochemical; details: immunoprecipitated yeast kinase
T1 construct: made in house

Cdc28p = target: T2, Cdc28p (Saccharomyces cerevisiae, UniProt P00546); assay: kinase assay in immunoprecipitates, Cdc28p; assay type: biochemical, yeast; details: for inhibition of Cdc28p (in words): immunoprecipitates
T2 construct: made in house
T2 sequence (P00546 whole entry): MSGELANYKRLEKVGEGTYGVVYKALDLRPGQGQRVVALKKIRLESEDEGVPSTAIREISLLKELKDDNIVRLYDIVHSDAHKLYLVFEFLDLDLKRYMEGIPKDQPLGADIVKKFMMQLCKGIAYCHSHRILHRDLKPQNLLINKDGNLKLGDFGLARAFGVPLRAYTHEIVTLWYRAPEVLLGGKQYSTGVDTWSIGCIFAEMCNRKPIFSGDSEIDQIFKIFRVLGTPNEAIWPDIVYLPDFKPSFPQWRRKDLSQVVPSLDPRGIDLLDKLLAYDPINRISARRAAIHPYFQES

[3] = system: drug-sensitized yeast strain; assay: yeast growth inhibition; assay type: cell-based; details: Saccharomyces cerevisiae; strain with drug-sensitizing deletions (erg6, pdr5, snq2)
yeast cells = assay: yeast arrest morphology and FACS; assay type: cell-based
Description: 16. The diminished growth inhibitory activity of compound 52Me is unlikely to result from poorer bioavailability because a similar N6 methylation is observed to increase the in vivo potency of a related series of purine-based inhibitors. The residual growth inhibitory activity of 52Me likely reflects activity against other cellular targets.

Pho85p = target: T3, Pho85p (Saccharomyces cerevisiae, UniProt P17157); assay: kinase assay in immunoprecipitates, Pho85p; assay type: biochemical, yeast; details: for inhibition of Pho85p (in words): immunoprecipitates
T3 construct: made in house
T3 sequence (P17157 whole entry): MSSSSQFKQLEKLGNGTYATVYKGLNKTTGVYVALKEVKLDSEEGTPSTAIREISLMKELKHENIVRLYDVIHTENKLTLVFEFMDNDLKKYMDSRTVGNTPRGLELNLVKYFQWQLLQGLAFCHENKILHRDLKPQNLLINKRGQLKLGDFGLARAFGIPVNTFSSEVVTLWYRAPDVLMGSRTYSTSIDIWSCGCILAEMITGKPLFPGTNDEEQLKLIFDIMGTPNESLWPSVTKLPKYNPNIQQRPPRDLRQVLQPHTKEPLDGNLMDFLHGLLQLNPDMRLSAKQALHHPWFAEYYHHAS

Kin28p = target: T4, Kin28p (Saccharomyces cerevisiae, UniProt P06242); assay: kinase assay in immunoprecipitates, Kin28p; assay type: biochemical; details: immunoprecipitated yeast kinase
T4 construct: made in house

Srb10 = target: T5, Srb10 (Saccharomyces cerevisiae, UniProt P39073); assay: kinase assay in immunoprecipitates, Srb10; assay type: biochemical; details: immunoprecipitated yeast kinase
T5 construct: made in house

[4] = system: four yeast CDKs (Cdc28p, Kin28p, Pho85p, and Srb10p) and the related kinase Cak1p; assay: yeast kinase panel in immunoprecipitates; assay type: biochemical
[5] = target: c-jun NH2-terminal kinase; assay: purified kinase assay, c-jun NH2-terminal kinase; assay type: biochemical, human
Description: as §1

cdk2-cyclin A = cdk2-cyclin A (Homo sapiens, UniProt P24941); assay: purified kinase assay, cdk2-cyclin A; assay type: biochemical
Description: as §1

Protein kinase C [6] = target: Protein kinase C (Homo sapiens, UniProt P17252); assay: purified kinase assay, Protein kinase C (Table 1 r15); assay type: biochemical; details: Table 1 r15, isoform symbol not given
Description: as §1

[7] = system: KM12 colon cancer cell line; assay: NCI panel growth inhibition, KM12; assay type: cell-based, human
Protein kinase C [8] = target: Protein kinase C (Homo sapiens, UniProt P05129); assay: purified kinase assay, Protein kinase C (Table 1 r18); assay type: biochemical; details: Table 1 r18, isoform symbol not given
Description: as §1

Protein kinase C2 = Protein kinase C2 (Homo sapiens, UniProt P05771); assay: purified kinase assay, Protein kinase C2 (Table 1 r17); assay type: biochemical
Description: as §1

Protein kinase C [9] = target: Protein kinase C (Homo sapiens, UniProt Q05513); assay: purified kinase assay, Protein kinase C (Table 1 r22); assay type: biochemical; details: Table 1 r22, isoform symbol not given
Protein kinase C (Homo sapiens, UniProt Q05513), sequence (Q05513 whole entry, canonical isoform): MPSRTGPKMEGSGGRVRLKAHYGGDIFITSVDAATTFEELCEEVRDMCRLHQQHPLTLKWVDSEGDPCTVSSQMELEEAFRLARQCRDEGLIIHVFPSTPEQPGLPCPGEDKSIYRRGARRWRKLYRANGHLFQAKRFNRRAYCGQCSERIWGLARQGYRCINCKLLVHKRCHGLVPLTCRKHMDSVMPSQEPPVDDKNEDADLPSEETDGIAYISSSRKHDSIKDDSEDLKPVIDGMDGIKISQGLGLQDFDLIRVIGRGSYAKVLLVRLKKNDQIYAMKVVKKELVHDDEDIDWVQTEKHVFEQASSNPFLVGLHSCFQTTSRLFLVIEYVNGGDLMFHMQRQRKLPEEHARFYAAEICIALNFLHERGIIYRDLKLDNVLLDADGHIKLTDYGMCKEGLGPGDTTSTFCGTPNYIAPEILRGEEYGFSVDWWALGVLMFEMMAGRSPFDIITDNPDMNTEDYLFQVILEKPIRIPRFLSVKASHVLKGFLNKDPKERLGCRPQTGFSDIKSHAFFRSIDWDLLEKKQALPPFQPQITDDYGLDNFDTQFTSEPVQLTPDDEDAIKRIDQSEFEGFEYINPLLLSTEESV
Description: as §1

[10] = target: cGMP-dependent protein kinase (Homo sapiens, UniProt Q13976); assay: purified kinase assay, cGMP-dependent protein kinase; assay type: biochemical
cGMP-dependent protein kinase, sequence (Q13976 whole entry): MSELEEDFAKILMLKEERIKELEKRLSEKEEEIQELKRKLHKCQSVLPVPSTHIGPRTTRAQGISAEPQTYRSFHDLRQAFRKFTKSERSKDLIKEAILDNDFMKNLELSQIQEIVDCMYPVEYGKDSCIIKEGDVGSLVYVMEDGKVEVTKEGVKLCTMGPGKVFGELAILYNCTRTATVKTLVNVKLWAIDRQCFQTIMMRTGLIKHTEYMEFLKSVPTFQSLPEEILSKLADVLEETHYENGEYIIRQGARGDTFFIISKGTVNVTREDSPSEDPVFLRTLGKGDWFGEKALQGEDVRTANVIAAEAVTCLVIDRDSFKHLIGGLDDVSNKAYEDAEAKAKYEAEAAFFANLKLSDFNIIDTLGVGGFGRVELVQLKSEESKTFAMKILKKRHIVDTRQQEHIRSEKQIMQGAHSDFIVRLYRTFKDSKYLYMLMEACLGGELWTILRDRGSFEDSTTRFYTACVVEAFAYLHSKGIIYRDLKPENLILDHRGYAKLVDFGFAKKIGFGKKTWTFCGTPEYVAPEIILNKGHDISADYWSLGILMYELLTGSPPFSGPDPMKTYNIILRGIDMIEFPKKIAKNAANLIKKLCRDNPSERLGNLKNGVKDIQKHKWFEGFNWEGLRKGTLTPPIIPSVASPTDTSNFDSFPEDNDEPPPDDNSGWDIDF
Description: as §1

[11] = target: cAMP-dependent protein kinase (Homo sapiens, UniProt P17612); assay: purified kinase assay, cAMP-dependent protein kinase; assay type: biochemical
Description: as §1

cdk2-cyclin E = cdk2-cyclin E (Homo sapiens, UniProt P24941); assay: purified kinase assay, cdk2-cyclin E; assay type: biochemical
Description: as §1

Protein kinase C1 = Protein kinase C1 (Homo sapiens, UniProt P05771); assay: purified kinase assay, Protein kinase C1 (Table 1 r16); assay type: biochemical
Description: as §1

cdk4-cyclin D1 = cdk4-cyclin D1 (Homo sapiens, UniProt P11802); assay: purified kinase assay, cdk4-cyclin D1; assay type: biochemical
Description: as §1

cdk5-p35 = cdk5-p35 (Homo sapiens, UniProt Q00535); assay: purified kinase assay, cdk5-p35; assay type: biochemical
Description: as §1

Protein kinase C [12] = target: Protein kinase C (Homo sapiens, UniProt Q05655); assay: purified kinase assay, Protein kinase C (Table 1 r19); assay type: biochemical; details: Table 1 r19, isoform symbol not given
Description: as §1

Casein kinase 1 = assay: purified kinase assay, Casein kinase 1; assay type: biochemical, human
Description: as §1

[13] = system: NCI-H522 non-small cell lung cancer cell line; assay: NCI panel growth inhibition, NCI-H522; assay type: cell-based, human
erk1 = erk1 (Homo sapiens, UniProt P27361); assay: purified kinase assay, erk1; assay type: biochemical
erk1, sequence (P27361 whole entry): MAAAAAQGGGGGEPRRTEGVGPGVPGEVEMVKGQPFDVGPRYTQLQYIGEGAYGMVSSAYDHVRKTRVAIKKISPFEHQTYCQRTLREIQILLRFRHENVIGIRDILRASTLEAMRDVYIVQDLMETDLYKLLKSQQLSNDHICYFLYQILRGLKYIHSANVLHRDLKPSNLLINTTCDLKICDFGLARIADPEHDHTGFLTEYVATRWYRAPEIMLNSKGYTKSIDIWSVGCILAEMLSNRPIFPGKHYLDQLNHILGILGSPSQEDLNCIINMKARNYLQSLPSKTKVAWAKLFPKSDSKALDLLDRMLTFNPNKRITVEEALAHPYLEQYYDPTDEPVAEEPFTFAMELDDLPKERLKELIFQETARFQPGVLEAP
Description: as §1

[14] = target: Insulin-receptor tyrosine kinase (Homo sapiens, UniProt P06213); assay: purified kinase assay, Insulin-receptor tyrosine kinase; assay type: biochemical
Insulin-receptor tyrosine kinase, sequence (P06213 28-1382): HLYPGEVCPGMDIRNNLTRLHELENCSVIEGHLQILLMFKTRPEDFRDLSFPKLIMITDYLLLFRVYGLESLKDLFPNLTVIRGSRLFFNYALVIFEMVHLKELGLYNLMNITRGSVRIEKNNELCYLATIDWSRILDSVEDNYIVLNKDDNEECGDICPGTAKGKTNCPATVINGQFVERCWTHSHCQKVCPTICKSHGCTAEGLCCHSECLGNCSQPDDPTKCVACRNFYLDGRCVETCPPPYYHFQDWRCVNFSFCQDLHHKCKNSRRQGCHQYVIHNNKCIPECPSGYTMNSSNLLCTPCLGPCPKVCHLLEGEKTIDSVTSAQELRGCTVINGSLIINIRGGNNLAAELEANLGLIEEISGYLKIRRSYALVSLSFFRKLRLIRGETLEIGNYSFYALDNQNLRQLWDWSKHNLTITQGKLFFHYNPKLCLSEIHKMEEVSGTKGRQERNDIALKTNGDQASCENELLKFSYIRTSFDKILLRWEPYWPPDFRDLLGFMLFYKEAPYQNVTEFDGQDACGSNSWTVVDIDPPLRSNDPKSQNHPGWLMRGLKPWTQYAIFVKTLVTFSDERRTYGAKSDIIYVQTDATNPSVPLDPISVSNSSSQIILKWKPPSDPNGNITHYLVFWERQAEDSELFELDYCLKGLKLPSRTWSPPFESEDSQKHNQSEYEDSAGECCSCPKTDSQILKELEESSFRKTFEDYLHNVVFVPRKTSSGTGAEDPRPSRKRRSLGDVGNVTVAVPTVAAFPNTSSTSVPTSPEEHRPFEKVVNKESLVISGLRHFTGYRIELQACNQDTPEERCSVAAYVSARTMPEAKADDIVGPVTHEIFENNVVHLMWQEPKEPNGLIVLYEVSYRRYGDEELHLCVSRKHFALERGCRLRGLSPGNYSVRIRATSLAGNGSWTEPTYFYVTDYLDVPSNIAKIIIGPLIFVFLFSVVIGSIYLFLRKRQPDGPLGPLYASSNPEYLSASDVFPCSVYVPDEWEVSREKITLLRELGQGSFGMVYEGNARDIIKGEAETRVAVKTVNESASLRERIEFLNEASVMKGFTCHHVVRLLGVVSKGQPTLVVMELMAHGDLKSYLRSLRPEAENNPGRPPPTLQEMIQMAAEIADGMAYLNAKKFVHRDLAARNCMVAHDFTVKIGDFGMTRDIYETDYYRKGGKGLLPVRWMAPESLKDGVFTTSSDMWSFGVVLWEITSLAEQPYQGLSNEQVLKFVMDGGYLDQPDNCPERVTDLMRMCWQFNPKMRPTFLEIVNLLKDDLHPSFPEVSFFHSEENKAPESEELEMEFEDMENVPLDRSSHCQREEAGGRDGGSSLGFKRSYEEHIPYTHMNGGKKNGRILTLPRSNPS
Description: as §1

Protein kinase C [15] = target: Protein kinase C (Homo sapiens, UniProt P24723); assay: purified kinase assay, Protein kinase C (Table 1 r21); assay type: biochemical; details: Table 1 r21, isoform symbol not given
Description: as §1

Protein kinase C [16] = target: Protein kinase C (Homo sapiens, UniProt Q02156); assay: purified kinase assay, Protein kinase C (Table 1 r20); assay type: biochemical; details: Table 1 r20, isoform symbol not given
Protein kinase C (Homo sapiens, UniProt Q02156), sequence (Q02156 whole entry, canonical isoform): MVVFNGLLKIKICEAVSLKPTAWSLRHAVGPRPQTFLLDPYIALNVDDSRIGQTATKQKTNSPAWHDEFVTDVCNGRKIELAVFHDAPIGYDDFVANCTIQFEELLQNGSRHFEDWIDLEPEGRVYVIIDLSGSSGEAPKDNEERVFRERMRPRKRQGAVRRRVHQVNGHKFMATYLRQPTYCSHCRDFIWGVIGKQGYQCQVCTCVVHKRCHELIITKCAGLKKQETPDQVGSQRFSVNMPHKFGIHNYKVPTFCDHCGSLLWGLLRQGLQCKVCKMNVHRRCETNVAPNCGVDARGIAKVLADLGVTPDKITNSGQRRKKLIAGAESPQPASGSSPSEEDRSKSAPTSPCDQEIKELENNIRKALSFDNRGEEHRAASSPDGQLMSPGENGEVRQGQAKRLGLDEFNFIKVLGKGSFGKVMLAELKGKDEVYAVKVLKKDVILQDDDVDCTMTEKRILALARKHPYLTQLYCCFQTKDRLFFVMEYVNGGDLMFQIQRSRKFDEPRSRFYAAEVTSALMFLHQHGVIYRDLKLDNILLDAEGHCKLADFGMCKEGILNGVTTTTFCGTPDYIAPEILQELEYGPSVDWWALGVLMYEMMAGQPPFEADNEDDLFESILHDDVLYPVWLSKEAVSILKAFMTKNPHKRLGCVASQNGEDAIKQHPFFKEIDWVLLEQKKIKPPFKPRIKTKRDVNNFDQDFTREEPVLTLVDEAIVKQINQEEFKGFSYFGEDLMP
Description: as §1

GSK3- = GSK3- (Homo sapiens, UniProt P49841); assay: purified kinase assay, GSK3-; assay type: biochemical
Description: as §1

[17] = system: NCI panel of 60 human tumor cell lines; assay: NCI panel growth inhibition; assay type: cell-based
[18] = yeast, inhibitor versus untreated
[19] = immunoprecipitated yeast kinase

## COc1ccc(CNc2nc(N(CCO)CCO)nc3c2ncn3C(C)C)cc1 [2-(bis-(hydroxylethyl)amino)-6-(4-methoxybenzylamino)-9-isopropylpurine]
[1]; high concentrations
  cell cycle inhibitory activity by FACS: both G1-S and G2-M inhibitory activity
[1]; lower concentrations
  cell cycle inhibitory activity by FACS: predominant G1-S inhibition

## CC(C)n1cnc2c(Nc3cccc(Cl)c3)nc(NCCO)nc21 [Compound 52, 2-(2-hydroxyethylamino)-6-(3-chloroanilino)-9-isopropylpurine]
cdc2-cyclin B
  IC50: 0.34 µM
[2]; 25 μM, 2 hours
  % of transcripts with greater than twofold change: 3%
  number of genes whose transcript levels were decreased at least threefold: ~50
  ribosomal protein transcripts decreased at least threefold: 14
  number of genes with greater than twofold change in transcript level: 194
[2]; C52 UNIQUE
  YKLO71W transcript Increase: 7-12 × Increase (C52)
[2]
  YCRX13W SOL2 transcript INCREASE: C52 - much smaller inc. (NL. 8 x at most) ×
[2]; [18]
  Y13R214W transcript INCREASES: (4-4.5 × for C52
  YBL002W HTB2 transcript DECREASES: (˜4.5 × for C52
  YBR296C transcript change (in words): VERY LARGE INCREASE (15-
  YDR281 C transcript INCREASE: ˜4.5-5.5 × INCREASE
  YGLI79 transcript change (in words): INCREASES C52 & FLA
  YGR108W (CLB 1) transcript DECREASES: (˜8 fold with C52
  YKRO97W PCK1 transcript INCREASES: ˜7-8 fold with C52
  YLR178c (TFS1) transcript INCREASES: INCREASES ˜6x
Cak1p
  IC50: > 500 µM
Cdc28p; [19]
  IC50: 7 µM
Cdc28p
  inhibition of Cdc28p (in words): inhibited
[3]
  GI50: 30 µM
Yeast cells
  arrest morphology in yeast (in words): failed to cause a uniform arrest morphology
  synchronization of yeast cells by FACS (in words): did not reveal synchronization
Pho85p; [19]
  IC50: 2 µM
Pho85p
  inhibition of Pho85p (in words): inhibited
Kin28p
  IC50: > 500 µM
Srb10
  IC50: > 500 µM

## CC(C)n1cnc2c(N(C)c3cccc(Cl)c3)nc(NCCO)nc21 [Compound 52Me]
[4]
  inhibition of any of the CDKs tested (in words): did not inhibit
[2]; 25 μM, 2 hours
  % of transcripts with greater than twofold change: 0.03%
  number of genes with greater than twofold change in transcript level: 2
[3]
  GI50: 200 µM
Yeast cells
  arrest morphology in yeast (in words): failed to cause a uniform arrest morphology
  synchronization of yeast cells by FACS (in words): did not reveal synchronization

## CN1CC[C@H](c2c(O)cc(O)c3c(=O)cc(-c4ccccc4Cl)oc23)[C@H](O)C1 [flavopiridol, reference compound]
[2]; 25 μM, 2 hours
  % of transcripts with greater than twofold change: 2%
  ribosomal protein transcripts decreased at least threefold: no ribosomal protein transcript levels decreased more than threefold
  number of genes with greater than twofold change in transcript level: 132
[2]
  YCRX13W SOL2 transcript INCREASE: 7.5-10 × INCREASE
[2]; [18]
  Y13R214W transcript INCREASES: 7-8.5 × for FLA
  YBL002W HTB2 transcript DECREASES: ˜2.7 × for FLA
  YBR296C transcript change (in words): VERY LARGE INCREASE (15-
  YGLI79 transcript change (in words): INCREASES C52 & FLA
  YGR108W (CLB 1) transcript DECREASES: ˜2.5-3 fold with FLA)
  YKRO97W PCK1 transcript INCREASES: ˜4 × with FLA fold
  YLR178c (TFS1) transcript INCREASES: INCREASES ˜6x
[3]
  GI50: 7 µM
Yeast cells
  arrest morphology in yeast (in words): failed to cause a uniform arrest morphology

## CC(C)[C@H](CO)Nc1nc(Nc2cccc(Cl)c2)c2ncn(C(C)C)c2n1 [purvalanol A]
[5]
  IC50: > 1 µM
cdk2-cyclin A
  IC50: 0.07 µM
Protein kinase C [6]
  IC50: > 10 µM
[7]
  GI50: 0.076 µM
Protein kinase C [8]
  IC50: > 10 µM
Protein kinase C2
  IC50: > 10 µM
Protein kinase C [9]
  IC50: > 100 µM
[10]
  IC50: > 10 µM
[11]
  IC50: 9 µM
cdk2-cyclin E
  IC50: 0.035 µM
Protein kinase C1
  IC50: > 10 µM
cdk4-cyclin D1
  IC50: 0.85 µM
Cdc28p
  inhibition of Cdc28p (in words): inhibited
cdk5-p35
  IC50: 0.075 µM
Protein kinase C [12]
  IC50: > 100 µM
Casein kinase 1
  IC50: > 3.33 µM
Pho85p
  inhibition of Pho85p (in words): inhibited
[13]
  GI50: 0.347 µM
erk1
  IC50: 9 µM
[14]
  IC50: 5 µM
Protein kinase C [15]
  IC50: > 100 µM
Protein kinase C [16]
  IC50: > 100 µM
GSK3-
  IC50: > 10 µM
[17]; KM12 and NCI-H522 versus average GI50
  increase in sensitivity of two cell lines out of the 60: ~20 fold
[17]; read-out: average GI50 (50% growth inhibition), average over 60 cell lines
  GI50: 2 µM

## CC(C)[C@H](CO)Nc1nc(Nc2ccc(C(=O)O)c(Cl)c2)c2ncn(C(C)C)c2n1 [purvalanol B, 2-(1R-isopropyl-2-hydroxyethylamino)-6-(3-chloro-4-carboxyanilino)-9-isopropylpurine]
[5]
  IC50: > 10 µM
[10]
  IC50: > 100 µM
[11]
  IC50: 3.8 µM
Casein kinase 1
  IC50: > 3.33 µM
[14]
  IC50: 2.2 µM

Source: patent publication US6524800B2, “Exploiting genomics in the search for new drugs” (Affymetrix, Inc., priority 1997, dated 2003)
